In patent publication US6054435A, “6-O-substituted macrolides having antibacterial activity” (priority 1999, dated 2000):
In brackets after ≈: the same amount, converted by molar mass.

Columns and labels:
Test in all cases: in vitro antibacterial activity (MIC), agar dilution
Format in all cases: cell-based
[1] = tested on: Staphylococcus aureus ATCC 6538P; details: organism code AA; BHI agar, 35-37° C., 20 to 24 hours; unit assumed
Method in brief: (§1)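 Plates of BHI agar were prepared with twelve aqueous dilutions of compound, then inoculated at 1:100 dilution, or 1:10 for slow growers like Streptococcus. After incubation they were inspected, and the lowest concentration yielding no growth, slight haze or sparse colonies was recorded as MIC.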

Candida albicans CCH 442 = details: organism code TT; BHI agar, 35-37° C., 20 to 24 hours; unit assumed
Method in brief: as §1

[2] = tested on: Streptococcus pyogenes PIU 2548; details: organism code NN; BHI agar, 35-37° C., 20 to 24 hours; unit assumed
Method in brief: as §1

[3] = tested on: Streptococcus agalactiae CMX 508; details: organism code KK; BHI agar, 35-37° C., 20 to 24 hours; unit assumed
Method in brief: as §1

[4] = tested on: Staphylococcus aureus A5177; details: organism code BB; BHI agar, 35-37° C., 20 to 24 hours; unit assumed
Method in brief: as §1

[5] = tested on: Streptococcus bovis A-5169; details: organism code JJ; BHI agar, 35-37° C., 20 to 24 hours; unit assumed
Method in brief: as §1

[6] = tested on: Streptococcus Pneumonia 5649; details: organism code ZZA; BHI agar, 35-37° C., 20 to 24 hours; unit assumed
Method in brief: as §1

[7] = tested on: Staphylococcus aureus 1775; details: organism code GG; BHI agar, 35-37° C., 20 to 24 hours; unit assumed
Method in brief: as §1

Escherichia coli DC-2 = details: organism code SS; BHI agar, 35-37° C., 20 to 24 hours; unit assumed
Method in brief: as §1

[8] = tested on: Mycobacterium smegmatis ATCC 114; details: organism code UU; BHI agar, 35-37° C., 20 to 24 hours; unit assumed
Method in brief: as §1

[9] = tested on: Staphylococcus aureus CMX 553; details: organism code FF; BHI agar, 35-37° C., 20 to 24 hours; unit assumed
Method in brief: as §1

Escherichia coli JUHL = details: organism code QQ; BHI agar, 35-37° C., 20 to 24 hours; unit assumed
Method in brief: as §1

[10] = tested on: Micrococcus luteus ATCC 4698; details: organism code PP; BHI agar, 35-37° C., 20 to 24 hours; unit assumed
Method in brief: (§2)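 Endpoint: lowest concentration with no growth, slight haze or sparsely isolated colonies at the inoculum spot, judged against a compound-free BHI control. Strains were replicator-inoculated at 1:100 (1:10 for Streptococcus and other slow growers).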

[11] = tested on: Streptococcus pyogenes EES61; details: organism code LL; BHI agar, 35-37° C., 20 to 24 hours; unit assumed
Method in brief: as §1

[12] = tested on: Enterococcus faecium ATCC 8043; details: organism code II; BHI agar, 35-37° C., 20 to 24 hours; unit assumed
Method in brief: as §1

[13] = tested on: Staphylococcus aureus CMX 642A; details: organism code DD; BHI agar, 35-37° C., 20 to 24 hours; unit assumed
Method in brief: as §1

[14] = tested on: Staphylococcus aureus A-5278; details: organism code CC; BHI agar, 35-37° C., 20 to 24 hours; unit assumed
Method in brief: as §1

[15] = tested on: Staphylococcus aureus NCTC10649M; details: organism code EE; BHI agar, 35-37° C., 20 to 24 hours; unit assumed
Method in brief: as §1

[16] = tested on: Staphylococcus epidermidis 3519; details: organism code HH; BHI agar, 35-37° C., 20 to 24 hours; unit assumed
Method in brief: as §1

[17] = tested on: Micrococcus luteus ATCC 9341; details: organism code OO; BHI agar, 35-37° C., 20 to 24 hours; unit assumed
Method in brief: as §2

[18] = tested on: Streptococcus pyogenes 930; details: organism code MM; BHI agar, 35-37° C., 20 to 24 hours; unit assumed
Method in brief: as §1

[19] = tested on: Streptococcus Pneumonia GYR 1171; details: organism code YY; BHI agar, 35-37° C., 20 to 24 hours; unit assumed
Method in brief: as §1

[20] = tested on: Nocardia Asteroides ATCC9970; details: organism code VV; BHI agar, 35-37° C., 20 to 24 hours; unit assumed
Method in brief: as §1

[21] = tested on: Haemophilis Influenzae DILL AMP R; details: organism code WW; BHI agar, 35-37° C., 20 to 24 hours; unit assumed
Method in brief: as §1

[22] = tested on: Streptococcus Pneumonia 5979; details: organism code ZZ; BHI agar, 35-37° C., 20 to 24 hours; unit assumed
Method in brief: as §1

Escherichia coli SS = details: organism code RR; BHI agar, 35-37° C., 20 to 24 hours; unit assumed
Method in brief: as §1

[23] = tested on: Streptococcus Pneumonia ATCC6303; details: organism code XX; BHI agar, 35-37° C., 20 to 24 hours; unit assumed
Method in brief: as §1

Row | Structure (SMILES) | MIC [1] | MIC (Candida albicans CCH 442) | MIC [2] | MIC [3] | MIC [4] | MIC [5] | MIC [6] | MIC [7] | MIC (Escherichia coli DC-2) | MIC [8] | MIC [9] | MIC (Escherichia coli JUHL) | MIC [10] | MIC [11] | MIC [12] | MIC [13] | MIC [14] | MIC [15] | MIC [16] | MIC [17] | other results
1 | CC[C@H]1OC(=O)[C@H](C)C(=O)[C@H](C)[C@@H](O[C@@H]2O[C@H](C)C[C@H](N(C)C)[C@H]2O)[C@](C)(OC/C=C/c2ncc(-c3cccnc3)s2)C[C@@H](C)C(=O)[C@H](C)[C@H]2NC(=O)O[C@@]21C [Example 54] | 0.05 µg/mL (≈ 0.0626 µM) | > 100 µg/mL | 0.1 µg/mL (≈ 0.125 µM) | ≤ 0.005 µg/mL | 0.05 µg/mL (≈ 0.0626 µM) | ≤ 0.005 µg/mL | 0.25 µg/mL (≈ 0.313 µM) | > 100 µg/mL | 25 µg/mL (≈ 31.3 µM) | 3.1 µg/mL (≈ 3.88 µM) | 0.05 µg/mL (≈ 0.0626 µM) | 1.56 µg/mL (≈ 1.95 µM) | 0.05 µg/mL (≈ 0.0626 µM) | ≤ 0.005 µg/mL | 0.02 µg/mL (≈ 0.025 µM) | 0.05 µg/mL (≈ 0.0626 µM) | > 100 µg/mL | 0.1 µg/mL (≈ 0.125 µM) | 0.05 µg/mL (≈ 0.0626 µM) | 0.01 µg/mL (≈ 0.0125 µM) | MIC [18]: 100 µg/mL (≈ 125 µM); MIC [19]: 0.03 µg/mL (≈ 0.0375 µM); MIC [20]: 0.01 µg/mL (≈ 0.0125 µM); MIC [21]: 2 µg/mL (≈ 2.5 µM); MIC [22]: 4 µg/mL (≈ 5.01 µM); MIC (Escherichia coli SS): 0.2 µg/mL (≈ 0.25 µM); MIC [23]: 0.03 µg/mL (≈ 0.0375 µM)
2 | CC[C@H]1OC(=O)[C@H](C)C(=O)[C@H](C)[C@@H](O[C@@H]2O[C@H](C)C[C@H](N(C)C)[C@H]2O)[C@](C)(OC/C=C/c2ccc(-c3ccc(Cl)c(Cl)c3)s2)C[C@@H](C)C(=O)[C@H](C)[C@H]2NC(=O)O[C@@]21C [Example 71] | 0.39 µg/mL (≈ 0.45 µM) | > 100 µg/mL | 0.39 µg/mL (≈ 0.45 µM) | 0.1 µg/mL (≈ 0.115 µM) | 0.39 µg/mL (≈ 0.45 µM) | 0.05 µg/mL (≈ 0.0577 µM) | 1 µg/mL (≈ 1.15 µM) | 12.5 µg/mL (≈ 14.4 µM) | > 100 µg/mL | 0.39 µg/mL (≈ 0.45 µM) | 0.39 µg/mL (≈ 0.45 µM) | > 100 µg/mL | 0.39 µg/mL (≈ 0.45 µM) | 0.1 µg/mL (≈ 0.115 µM) | 0.39 µg/mL (≈ 0.45 µM) | 0.39 µg/mL (≈ 0.45 µM) | 12.5 µg/mL (≈ 14.4 µM) | 0.39 µg/mL (≈ 0.45 µM) | 0.39 µg/mL (≈ 0.45 µM) | 0.39 µg/mL (≈ 0.45 µM) | MIC [18]: 3.1 µg/mL (≈ 3.58 µM); MIC [19]: 0.125 µg/mL (≈ 0.144 µM); MIC [20]: 0.39 µg/mL (≈ 0.45 µM); MIC [21]: 16 µg/mL (≈ 18.5 µM); MIC [22]: 4 µg/mL (≈ 4.62 µM); MIC (Escherichia coli SS): 3.1 µg/mL (≈ 3.58 µM); MIC [23]: 0.125 µg/mL (≈ 0.144 µM)
3 | CC[C@H]1OC(=O)[C@H](C)C(=O)[C@H](C)[C@@H](O[C@@H]2O[C@H](C)C[C@H](N(C)C)[C@H]2O)[C@](C)(OC/C=C/c2ccc(-c3ncccn3)s2)C[C@@H](C)C(=O)[C@H](C)[C@H]2NC(=O)O[C@@]21C [Example 61] | 0.05 µg/mL (≈ 0.0626 µM) | > 100 µg/mL | 0.1 µg/mL (≈ 0.125 µM) | 0.01 µg/mL (≈ 0.0125 µM) | 0.1 µg/mL (≈ 0.125 µM) | 0.01 µg/mL (≈ 0.0125 µM) | 0.25 µg/mL (≈ 0.313 µM) | > 100 µg/mL | 50 µg/mL (≈ 62.6 µM) | 0.39 µg/mL (≈ 0.488 µM) | 0.1 µg/mL (≈ 0.125 µM) | 25 µg/mL (≈ 31.3 µM) | 0.05 µg/mL (≈ 0.0626 µM) | 0.01 µg/mL (≈ 0.0125 µM) | 0.05 µg/mL (≈ 0.0626 µM) | 0.1 µg/mL (≈ 0.125 µM) | > 100 µg/mL | 0.1 µg/mL (≈ 0.125 µM) | 0.1 µg/mL (≈ 0.125 µM) | 0.01 µg/mL (≈ 0.0125 µM) | MIC [18]: 50 µg/mL (≈ 62.6 µM); MIC [19]: 0.015 µg/mL (≈ 0.0188 µM); MIC [20]: 0.05 µg/mL (≈ 0.0626 µM); MIC [21]: 8 µg/mL (≈ 10 µM); MIC [22]: 8 µg/mL (≈ 10 µM); MIC (Escherichia coli SS): 0.39 µg/mL (≈ 0.488 µM); MIC [23]: 0.015 µg/mL (≈ 0.0188 µM)
4 | CC[C@H]1OC(=O)[C@H](C)C(=O)[C@H](C)[C@@H](O[C@@H]2O[C@H](C)C[C@H](N(C)C)[C@H]2O)[C@](C)(OCC#Cc2ccc(-c3cncnc3)s2)C[C@@H](C)C(=O)[C@H](C)[C@H]2NC(=O)O[C@@]21C [Example 4] | 0.1 µg/mL (≈ 0.125 µM) | > 100 µg/mL | 0.1 µg/mL (≈ 0.125 µM) | 0.01 µg/mL (≈ 0.0125 µM) | 0.1 µg/mL (≈ 0.125 µM) | ≤ 0.005 µg/mL | 0.5 µg/mL (≈ 0.627 µM) | > 100 µg/mL | 50 µg/mL (≈ 62.7 µM) | 0.78 µg/mL (≈ 0.979 µM) | 0.1 µg/mL (≈ 0.125 µM) | 50 µg/mL (≈ 62.7 µM) | 0.05 µg/mL (≈ 0.0627 µM) | 0.01 µg/mL (≈ 0.0125 µM) | 0.02 µg/mL (≈ 0.0251 µM) | 0.1 µg/mL (≈ 0.125 µM) | > 100 µg/mL | 0.1 µg/mL (≈ 0.125 µM) | 0.1 µg/mL (≈ 0.125 µM) | 0.01 µg/mL (≈ 0.0125 µM) | MIC [18]: 12.5 µg/mL (≈ 15.7 µM); MIC [19]: 0.03 µg/mL (≈ 0.0376 µM); MIC [20]: 0.02 µg/mL (≈ 0.0251 µM); MIC [21]: 2 µg/mL (≈ 2.51 µM); MIC [22]: 2 µg/mL (≈ 2.51 µM); MIC (Escherichia coli SS): 0.39 µg/mL (≈ 0.489 µM); MIC [23]: 0.03 µg/mL (≈ 0.0376 µM)
